From patent publication US20100021924A1, “Transgenic animal and methods for decreasing cardiac cell death via cardiac-specific sir2alpha overexpression” (priority 2005, published 2010)
Entries after “also recorded” stand apart in the source; their conditions may differ.

Tests used:
mouse hearts = assay type: in vivo, mice; design: LV contraction (EF, % FS): dose or concentration left out as unconfirmed
Experimental: Tg-Sirt2α (n=6) and NTg (n=4) mice from line 40 were treated with ip injection of 10 mg/kg of paraquat (PQ) for 2 weeks. LV ejection fraction (EF, FIG. 8A) and % fractional shortening (% FS, FIG. 8B) of Tg-Sirt2α and NTg mice after PQ treatment is shown. […] Immunoblot analyses of catalase were conducted, using cardiac myocytes transduced with adenovirus vectors harboring constitutively actively FOXO1a (F-CA), dominant negative FOXO1a (F-DN), or Sirt2α. n=3-4. Values are presented as means±SE.
To this end, mice were treated for 14 days with paraquat, an inducer of oxidative stress. […] The paraquat-induced increases in oxidative stress were abolished in Tg-Sirt1 line 40 (FIG. 8D). […] Paraquat-induced increases in expression of catalase, an antioxidant, were greater in Tg-Sirt1 than in NTg hearts (FIG. 8E).

cardiac myocytes [1] = assay: TUNEL staining of cultured cardiac myocytes; assay type: cell-based, rat; conditions: for TUNEL positive myocytes: compound alone
Experimental: Subsequently, it was determined whether cardiac myocyte death by Sir2α inhibition was due to apoptosis. […] To examine whether activation of caspase-3 was involved in myocyte death induced by NAM and TSA, the effect of DEVD-CHO, a cell permeable inhibitor of caspase-3, upon myocyte death was examined.
Primary Culture of Neonatal Rat Ventricular Myocytes. […] Myocytes were cultured under serum-free conditions for 48 hours before experiments.

caspase-3 = assay: Caspase-3 cleavage in cardiac myocytes; assay type: cell-based, rat; conditions: treated cardiac myocytes
Experimental: (§1) Subsequently, it was determined whether cardiac myocyte death by Sir2α inhibition was due to apoptosis. […] Similar results were obtained using TUNEL staining. To examine whether activation of caspase-3 was involved in myocyte death induced by NAM and TSA, the effect of DEVD-CHO, a cell permeable inhibitor of caspase-3, upon myocyte death was examined.
To further confirm that inhibition of endogenous Sir2α stimulates cardiac myocyte apoptosis, the effects of a dominant-negative Sir2α were examined. […] The level of cleaved caspase-3 was higher in dominant-negative Sir2α-transduced myocytes than in LacZ-transduced cells.
Immunoblot Analysis. Nuclear fractions were prepared as described (Tomita, et al. (2003) supra). Whole-cell lysates were obtained using Lysis Buffer A, containing 150 mmol/L NaCl, 50 mmol/L Tris, pH 7.5, 0.1 mmol/L Na3VO4, 1 mmol/L NaF, 0.5 mmol 4-(2-aminoethyl)benzenesulfonyl fluoride hydrochloride, 1% NONIDET P-40, 0.1% sodium dodecyl sulfate, 0.5% deoxycholic acid, 0.5 μg/mL leupeptin, and 0.5 μg/mL aprotinin. For immunoblotting, the antimurine Sir2α antibody (1:10 000) was used.

cardiac myocytes [2] = assay: Cell Death Detection ELISA (cytoplasmic mono- and oligo-nucleosomes); assay type: cell-based, rat; conditions: for mono- and oligo-nucleosomes in the cytoplasm (nuclear fragmentation): marker of apoptosis
Experimental: Myocytes were transduced with an adenoviral vector encoding LacZ (Ad-LacZ) or Sir2α (Ad-Sir2α) with or without serum for 48 hours followed by Cell Death ELISA (FIG. 1A). Alternatively, myocytes were transduced Ad-LacZ or Ad-Sir2α with or without H2O2 (100 μM) for 48 hours followed by Cell Death ELISA (FIG. 1B). […] Mean OD value of control was designated as 1. Each column represents mean from 3 different culture preparations.
as §1
(§2) Cardiac-specific overexpression of Sir2α was subsequently examined. […] After 7 days, most myocytes were dead in a low-density culture condition. […] It has been shown that pyruvate increases, while lactate decreases, the cellular NAD^+/NADH ratio, thereby positively or negatively regulating the activity of endogenous Sir2α (Fulco, et al. (2003) Mol. Cell 12:51-62).
(§3) Primary Culture of Neonatal Rat Ventricular Myocytes. Primary cultures of cardiac ventricular myocytes were prepared from 1-day-old Crl: (WI) BR-Wistar rats according to standard methods (Tomita, et al. (2003) Circ. Res. 93:12-22). Myocytes were cultured under serum-free conditions for 48 hours before experiments. Cell size and total protein content were obtained (Tomita, et al. (2003) supra).
Assays for Apoptosis. Histone-associated DNA fragments were quantitated by the Cell Death Detection ELISA (ROCHE; Yamamoto, et al. (2003) J. Clin. Invest. 111:1463-1474).

p53 [3] = assay: p53-Luc reporter gene assay; assay type: cell-based, rat; conditions: treated myocytes
Experimental: Transfection and Luciferase Assays. One million cells were transfected with 4 μg of plasmid. The transcriptional activity of p53 was evaluated using p53-Luc (2 pg) containing 15 copies of specific p53 DNA-binding sequence ([sequence]). A plasmid carrying the β-galactosidase gene (SV40-β-gal; 1 μg) was cotransfected. One microgram of expression plasmids pcDNA3.1, pcDNA3.1-Sir2α, or pcDNA 3.1-DN-Sir2α was employed.

[4] = system: neonatal rat cardiac myocytes; assay: Cardiac myocyte morphology and death (shrinkage, detachment, cell size); assay type: cell-based
Experimental: A 110 kD protein was detected predominantly in the nuclear fraction. To examine the function of Sir2α in cardiac myocytes, nicotinamide (NAM) and sirtinol, inhibitors of Sir2 (Bitterman, et al. (2002) J. Biol. Chem. 277:45099-45107; Grozinger, et al. (2001) J. Biol. Chem. 276:38837-38843) were employed. Myocytes were also treated with trichostatin A (TSA), an inhibitor of class I and II HDACs (Johnstone (2002) Nat. Rev. Drug Discov. 1:287-299).
To examine whether cardiac myocyte apoptosis due to inhibition of Sir2α is mediated by p53, cardiac myocytes were transduced with adenovirus harboring temperature-sensitive dominant-negative p53 and cultured at 39° C. […] The temperature-sensitive dominant-negative p53 construct works as a dominant-negative only at high temperatures (Regula and Kirshenbaum (2001) J. Mol. Cell. Cardiol. 33:1435-1445). Consistent with this, the cell death inhibitory effect of dominant-negative p53 against NAM treatment was not observed at 32° C.
as §2, §3

p53 [5] = assay: Immunoblot of nuclear fractions with anti-acetylated p53 antibodies; assay type: cell-based, rat; conditions: for Acetylation of p53 at K320 / Acetylation of p53 at K373/382: nuclear fractions of treated myocytes; for total amount of p53: treated myocytes
Excerpt: To examine whether the status of acetylation in p53 is affected by NAM or TSA in cardiac myocytes, nuclear fractions were subjected to immunoblot analysis with anti-acetylated p53 antibodies.
Anti-Sir2α antibody, anti-acetyl-p53 (Lys 320 and Lys 373/382) antibodies and anti-acetyl histone H3 and H4 antibodies were purchased from Upstate. Sirtinol and DEVD-CHO were from CALBIOCHEM, and Trichostatin A (TSA) was from SIGMA.

Histones 3 and 4 = assay: Histone acetylation in treated cardiac myocytes (immunoblot); assay type: cell-based, rat
myocytes = conditions: treatment with resveratrol; Pillai et al. 2005; cited from earlier work

## C[n+]1ccc(-c2cc[n+](C)cc2)cc1 [Paraquat, paraquat]
Mouse hearts
  LV contraction (EF, % FS): significantly reduced LV contraction
Mouse hearts; NTg mouse hearts, ip 10 mg/kg, 14 days
  oxidative stress (8-OHdG staining, MDA content): significantly increased the extent of oxidative stress

## DEVD-CHO
Cardiac myocytes [1]; effect of caspase-3 inhibitor on NAM-induced death
  TUNEL positive myocytes caused by NAM: prevented increases in TUNEL positive myocytes
Cardiac myocytes [1]; effect of caspase-3 inhibitor on TSA-induced death
  TUNEL-positive myocytes due to TSA: did not affect

## CC(NC(=O)c1ccccc1/N=C/c1c(O)ccc2ccccc12)c1ccccc1 (stereo not drawn) [sirtinol]
caspase-3
  cleavage of caspase-3: induced cleavage of caspase-3
Cardiac myocytes [2]
  mono- and oligo-nucleosomes in the cytoplasm (nuclear fragmentation): significantly increased

## CC(/C=C/C(=O)NO)=C\[C@@H](C)C(=O)c1ccc(N(C)C)cc1 [TSA, trichostatin A]
p53 [3]
  activity of p53-Luc: failed to activate
caspase-3
  cleavage of caspase-3: did not
[4]; at high doses
  myocyte death: caused death in some myocytes at high doses
[4]; treated cardiac myocytes
  cell size: modestly increased cell size
p53 [5]
  Acetylation of p53 at K320: not
  Acetylation of p53 at K373/382: not
  total amount of p53: Neither NAM nor TSA significantly changed
Cardiac myocytes [1]
  TUNEL positive myocytes: modest increase in TUNEL-positive myocytes
Histones 3 and 4
  acetylation of Histones 3 and 4: increased acetylation of Histones 3 and 4
Cardiac myocytes [2]
  mono- and oligo-nucleosomes in the cytoplasm (nuclear fragmentation): significantly increased nuclear fragmentation; also recorded: not as potent as NAM

## Oc1ccc(C=Cc2cc(O)cc(O)c2)cc1 [resveratrol]
myocytes
  myocyte cell death in vitro: prevents myocyte cell death

## CC(O)C(=O)O (stereo not drawn) [lactate]
Cardiac myocytes [2]; 10 mM, 48 hours (FIG. 1C)
  cytoplasmic accumulation of mono- and oligo-nucleosomes induced by serum starvation: stimulated it

## NC(=O)c1cccnc1 [NAM, nicotinamide]
p53 [3]
  activity of p53-Luc: dose-dependently increased
caspase-3
  cleavage of caspase-3: induced cleavage of caspase-3
[4]; treatment for 48 hours
  cell shrinkage and detachment, consistent with apoptosis: dose-dependent increases in cell shrinkage and detachment
p53 [5]
  Acetylation of p53 at K320: 2.8 fold
  Acetylation of p53 at K373/382: 1.8 fold
  total amount of p53: Neither NAM nor TSA significantly changed
Cardiac myocytes [1]
  TUNEL positive myocytes: increases in TUNEL positive myocytes
Histones 3 and 4
  acetylation of Histones 3 and 4: increased acetylation of Histones 3 and 4
Cardiac myocytes [2]
  mono- and oligo-nucleosomes in the cytoplasm (nuclear fragmentation): significantly increased
